# Patent publication US8748481B2, “Method for treating gastrointestinal disorder” (Sucampo AG, priority 2004, dated 2014)
# Marks after values point to notes of the source that are not given here.
# System: subjects with irritable bowel syndrome (IBS)
# Experiment: IBS QOL questionnaire, 12-week double-blind randomized study (Example 7)
# Assay type: in vivo, human
# Parameters: key to IBS QOL Overall scaled score, Mean / IBS QOL Dysphoria scaled score, Mean / IBS QOL Interference with Activity scaled score, Mean / IBS QOL Body Image scaled score, Mean / IBS QOL Health Worry scaled score, Mean / IBS QOL Food Avoidance scaled score, Mean / IBS QOL Social Reaction scaled score, Mean / IBS QOL Sexual scaled score, Mean / IBS QOL Relationship scaled score, Mean: IBS-QOL scaled score, 0–100
# Conditions: for IBS QOL Body Image scaled score, Mean / IBS QOL Dysphoria scaled score, Mean / IBS QOL Food Avoidance scaled score, Mean / IBS QOL Health Worry scaled score, Mean / IBS QOL Interference with Activity scaled score, Mean / IBS QOL Overall scaled score, Mean / IBS QOL Relationship scaled score, Mean / IBS QOL Sexual scaled score, Mean / IBS QOL Social Reaction scaled score, Mean: Baseline; for IBS QOL Body Image, Mean change from Baseline / IBS QOL Dysphoria, Mean change from Baseline / IBS QOL Food Avoidance, Mean change from Baseline / IBS QOL Health Worry, Mean change from Baseline / IBS QOL Interference with Activity, Mean change from Baseline / IBS QOL Overall, Mean change from Baseline / IBS QOL Relationship, Mean change from Baseline / IBS QOL Sexual, Mean change from Baseline / IBS QOL Social Reaction, Mean change from Baseline: without LOCF
# Experimental: A 12-week, double-blind, randomized study was performed to assess the safety and efficacy of oral 16 μg, 32 μg and 48 μg (total daily dose) of compound A to subjects with irritable bowel syndrome (IBS).
# The patients answered the IBS QOL questionnaire at baseline, at week 4, Week 12 and at the end of study, and Questionnaire results were scored according to the IBS QOL User's Manual (A Quality of Life Measure for Persons with Irritable Bowel Syndrome (IBS-QOL): User's Manual and Scoring Diskette for United States Version. Seattle, Wash.: University of Washington; 1997). Scaled scores were used for all analyses, and scores were calculated according to the User's Manual as follows: Scaled Score=([Sum of IBS-QOL items−lowest possible score]/Possible raw score range))×100
# Changes from baseline at week 4, week 12 and at the End of Study were assessed for the mean overall score and for the mean domain scores (dysphoria, interference with activity, body image, health worry, food avoidance, social reaction, sexual, and relationship).
structure (smiles),measurement,setting,value
"CCCCC(F)(F)C(=O)CCC1C(O)CC(=O)C1CCCCCCC(=O)O (stereo not shown) [Compound A, 13,14-dihydro-15-keto-16,16-difluoro-PGE1]",Improvement from baseline in IBS-QOL compared among dose groups,"16 μg group vs. 32 μg and 48 μg groups, every specific area and QOL overall",greatest improvement
same,"IBS QOL Body Image scaled score, Mean",16 μg group,41.42
same,"IBS QOL Dysphoria scaled score, Mean",16 μg group,53.19
same,"IBS QOL Food Avoidance scaled score, Mean",16 μg group,46.08
same,"IBS QOL Health Worry scaled score, Mean",16 μg group,37.74
same,"IBS QOL Interference with Activity scaled score, Mean",16 μg group,65.82
same,"IBS QOL Overall scaled score, Mean",16 μg group,55.66
same,"IBS QOL Relationship scaled score, Mean",16 μg group,67.81
same,"IBS QOL Sexual scaled score, Mean",16 μg group,64.95
same,"IBS QOL Social Reaction scaled score, Mean",16 μg group,63.97
same,"IBS QOL Body Image, Mean change from Baseline","16 μg/day, End of Study",20.41**
same,"IBS QOL Dysphoria, Mean change from Baseline","16 μg/day, End of Study",21.62**
same,"IBS QOL Food Avoidance, Mean change from Baseline","16 μg/day, End of Study",13.95**
same,"IBS QOL Health Worry, Mean change from Baseline","16 μg/day, End of Study",21.94**
same,"IBS QOL Interference with Activity, Mean change from Baseline","16 μg/day, End of Study",11.95**
same,"IBS QOL Overall, Mean change from Baseline","16 μg/day, End of Study",16.82**
same,"IBS QOL Relationship, Mean change from Baseline","16 μg/day, End of Study",14.28**
same,"IBS QOL Sexual, Mean change from Baseline","16 μg/day, End of Study",14.03**
same,"IBS QOL Social Reaction, Mean change from Baseline","16 μg/day, End of Study",13.78**
same,"IBS QOL Body Image, Mean change from Baseline","16 μg/day, Week 4",16.39**
same,"IBS QOL Dysphoria, Mean change from Baseline","16 μg/day, Week 4",17.85**
same,"IBS QOL Food Avoidance, Mean change from Baseline","16 μg/day, Week 4",13.89**
same,"IBS QOL Health Worry, Mean change from Baseline","16 μg/day, Week 4",22.41**
same,"IBS QOL Interference with Activity, Mean change from Baseline","16 μg/day, Week 4",10.87**
same,"IBS QOL Overall, Mean change from Baseline","16 μg/day, Week 4",14.7**
same,"IBS QOL Relationship, Mean change from Baseline","16 μg/day, Week 4",10.74**
same,"IBS QOL Sexual, Mean change from Baseline","16 μg/day, Week 4",13.33**
same,"IBS QOL Social Reaction, Mean change from Baseline","16 μg/day, Week 4",11.94**
same,"IBS QOL Body Image, Mean change from Baseline","16 μg/day, Week 12",22.32**
same,"IBS QOL Dysphoria, Mean change from Baseline","16 μg/day, Week 12",23.51**
same,"IBS QOL Food Avoidance, Mean change from Baseline","16 μg/day, Week 12",15.28**
same,"IBS QOL Health Worry, Mean change from Baseline","16 μg/day, Week 12",23.81**
same,"IBS QOL Interference with Activity, Mean change from Baseline","16 μg/day, Week 12",13.95**
same,"IBS QOL Overall, Mean change from Baseline","16 μg/day, Week 12",18.54**
same,"IBS QOL Relationship, Mean change from Baseline","16 μg/day, Week 12",15.47**
same,"IBS QOL Sexual, Mean change from Baseline","16 μg/day, Week 12",16.67**
same,"IBS QOL Social Reaction, Mean change from Baseline","16 μg/day, Week 12",14.58**
same,"IBS QOL Body Image scaled score, Mean",32 μg group,43.37
same,"IBS QOL Dysphoria scaled score, Mean",32 μg group,59.69
same,"IBS QOL Food Avoidance scaled score, Mean",32 μg group,52.21
same,"IBS QOL Health Worry scaled score, Mean",32 μg group,44.38
same,"IBS QOL Interference with Activity scaled score, Mean",32 μg group,69.82
same,"IBS QOL Overall scaled score, Mean",32 μg group,60.14
same,"IBS QOL Relationship scaled score, Mean",32 μg group,70.23
same,"IBS QOL Sexual scaled score, Mean",32 μg group,68.62
same,"IBS QOL Social Reaction scaled score, Mean",32 μg group,66.84
same,"IBS QOL Body Image, Mean change from Baseline","32 μg/day, End of Study",17.47**
same,"IBS QOL Dysphoria, Mean change from Baseline","32 μg/day, End of Study",14.77**
same,"IBS QOL Food Avoidance, Mean change from Baseline","32 μg/day, End of Study",10.79**
same,"IBS QOL Health Worry, Mean change from Baseline","32 μg/day, End of Study",17.61**
same,"IBS QOL Interference with Activity, Mean change from Baseline","32 μg/day, End of Study",8.2**
same,"IBS QOL Overall, Mean change from Baseline","32 μg/day, End of Study",12.58**
same,"IBS QOL Relationship, Mean change from Baseline","32 μg/day, End of Study",10.79**
same,"IBS QOL Sexual, Mean change from Baseline","32 μg/day, End of Study",10.23**
same,"IBS QOL Social Reaction, Mean change from Baseline","32 μg/day, End of Study",11.08**
same,"IBS QOL Body Image, Mean change from Baseline","32 μg/day, Week 4",15.28**
same,"IBS QOL Dysphoria, Mean change from Baseline","32 μg/day, Week 4",14.58**
same,"IBS QOL Food Avoidance, Mean change from Baseline","32 μg/day, Week 4",8.33*
same,"IBS QOL Health Worry, Mean change from Baseline","32 μg/day, Week 4",16.9**
same,"IBS QOL Interference with Activity, Mean change from Baseline","32 μg/day, Week 4",7.04*
same,"IBS QOL Overall, Mean change from Baseline","32 μg/day, Week 4",11.25**
same,"IBS QOL Relationship, Mean change from Baseline","32 μg/day, Week 4",7.64*
same,"IBS QOL Sexual, Mean change from Baseline","32 μg/day, Week 4",8.68**
same,"IBS QOL Social Reaction, Mean change from Baseline","32 μg/day, Week 4",9.9**
same,"IBS QOL Body Image, Mean change from Baseline","32 μg/day, Week 12",17.99**
same,"IBS QOL Dysphoria, Mean change from Baseline","32 μg/day, Week 12",15.25**
same,"IBS QOL Food Avoidance, Mean change from Baseline","32 μg/day, Week 12",11.36**
same,"IBS QOL Health Worry, Mean change from Baseline","32 μg/day, Week 12",19.44**
same,"IBS QOL Interference with Activity, Mean change from Baseline","32 μg/day, Week 12",9.42**
same,"IBS QOL Overall, Mean change from Baseline","32 μg/day, Week 12",13.08**
same,"IBS QOL Relationship, Mean change from Baseline","32 μg/day, Week 12",9.09*
same,"IBS QOL Sexual, Mean change from Baseline","32 μg/day, Week 12",10.98**
same,"IBS QOL Social Reaction, Mean change from Baseline","32 μg/day, Week 12",10.8**
same,"IBS QOL Body Image scaled score, Mean",48 μg group,45.69
same,"IBS QOL Dysphoria scaled score, Mean",48 μg group,56.81
same,"IBS QOL Food Avoidance scaled score, Mean",48 μg group,50.37
same,"IBS QOL Health Worry scaled score, Mean",48 μg group,44.07
same,"IBS QOL Interference with Activity scaled score, Mean",48 μg group,68.25
same,"IBS QOL Overall scaled score, Mean",48 μg group,59.85
same,"IBS QOL Relationship scaled score, Mean",48 μg group,75.18
same,"IBS QOL Sexual scaled score, Mean",48 μg group,71.94
same,"IBS QOL Social Reaction scaled score, Mean",48 μg group,66.81
same,"IBS QOL Body Image, Mean change from Baseline","48 μg/day, End of Study",14.24**
same,"IBS QOL Dysphoria, Mean change from Baseline","48 μg/day, End of Study",16.28**
same,"IBS QOL Food Avoidance, Mean change from Baseline","48 μg/day, End of Study",8.33**
same,"IBS QOL Health Worry, Mean change from Baseline","48 μg/day, End of Study",17.05**
same,"IBS QOL Interference with Activity, Mean change from Baseline","48 μg/day, End of Study",7.97**
same,"IBS QOL Overall, Mean change from Baseline","48 μg/day, End of Study",11.54**
same,"IBS QOL Relationship, Mean change from Baseline","48 μg/day, End of Study",6.01**
same,"IBS QOL Sexual, Mean change from Baseline","48 μg/day, End of Study",3.49
same,"IBS QOL Social Reaction, Mean change from Baseline","48 μg/day, End of Study",12.06**
same,"IBS QOL Body Image, Mean change from Baseline","48 μg/day, Week 4",13.24**
same,"IBS QOL Dysphoria, Mean change from Baseline","48 μg/day, Week 4",17.28**
same,"IBS QOL Food Avoidance, Mean change from Baseline","48 μg/day, Week 4",12.01**
same,"IBS QOL Health Worry, Mean change from Baseline","48 μg/day, Week 4",19.61**
same,"IBS QOL Interference with Activity, Mean change from Baseline","48 μg/day, Week 4",9.14**
same,"IBS QOL Overall, Mean change from Baseline","48 μg/day, Week 4",12.43**
same,"IBS QOL Relationship, Mean change from Baseline","48 μg/day, Week 4",6.87**
same,"IBS QOL Sexual, Mean change from Baseline","48 μg/day, Week 4",8.46**
same,"IBS QOL Social Reaction, Mean change from Baseline","48 μg/day, Week 4",8.82**
same,"IBS QOL Body Image, Mean change from Baseline","48 μg/day, Week 12",17.08**
same,"IBS QOL Dysphoria, Mean change from Baseline","48 μg/day, Week 12",20.83**
same,"IBS QOL Health Worry, Mean change from Baseline","48 μg/day, Week 12",23.33**
same,"IBS QOL Interference with Activity, Mean change from Baseline","48 μg/day, Week 12",10.95**
same,"IBS QOL Overall, Mean change from Baseline","48 μg/day, Week 12",14.8**
same,"IBS QOL Relationship, Mean change from Baseline","48 μg/day, Week 12",6.95**
same,"IBS QOL Sexual, Mean change from Baseline","48 μg/day, Week 12",5
same,"IBS QOL Social Reaction, Mean change from Baseline","48 μg/day, Week 12",14.17**
same,IBS-QOL change from baseline vs. zero,"all groups (16, 32, 48 μg)",significantly different from Zero
